According to patent publication US20260152487A1 (Sitryx Therapeutics Limited, priority 2021, published 2026):
Read-outs that look alike come from different tables or passages of the source.

Columns and labels:
[1] = target: T1, recombinant human PKM2 (Homo sapiens, UniProt P14618); test: Human PKM2 activation assay (Kinase-Glo Plus luminescent detection of generated ATP); assay type: biochemical; conditions: for EC50: read-out: hPKM2 EC50; for Emax: read-out: hPKM2 Emax
T1 construct: His (N); purchased R&D Systems
Method in brief: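 Luminescent ATP detection (Kinase-Glo Plus, 15 min, 26 °C) followed a 60 min, 26 °C shaken reaction of compound with […] His-tagged human PKM2, PEP and ADP in imidazole/KCl/MgCl2 buffer with Tween20 and BSA, pH 7.2.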

[2] = target: T2, recombinant human PKLR (Homo sapiens, UniProt P30613); test: Human PKLR activation assay (Kinase-Glo Plus luminescent detection of generated ATP); assay type: biochemical; conditions: for EC50: read-out: hPKLR EC50; for Emax: read-out: hPKLR Emax (%)
T2 construct: His (N); purchased R&D Systems
Protocol: Compound activation of recombinant human PKLR pyruvate kinase activity was determined by biochemical assay. N-terminal His-tagged enzyme was sourced from R&D Systems and its substrates phosphoenolpyruvate (PEP) and ADP from Sigma-Aldrich and 2Bscientific Ltd, respectively. The Kinase-Glo® Plus luminescence assay was from Promega. All other reagents were from Sigma-Aldrich. Test Compounds were prepared as 10 mM DMSO stocks and dilution series prepared in DMSO for direct dilution into Assay Buffer comprising 50 mM imidazole, 50 mM KCl, 7 mM MgCl2, 0.01% Tween20, 0.05% BSA (pH 7.2).
Human PKLR was diluted into Assay Buffer to a final concentration of 5 pM. Enzyme-Assay Buffer mix was dispensed into 384-well shallow-well white-walled plates and Test Compounds added by acoustic dispense (Echo®, Labcyte Inc).
After 60 minutes' incubation on an orbital shaker (300 rpm, 26° C.), enzyme activity was quantified by the luminescent detection of generated ATP. Kinase-Glo® Plus reagent was added to each well and the plates incubated for a further 15 minutes on an orbital shaker in the dark (300 rpm, 26° C.) before luminescence measurement on a plate reader (PHERAstar® FSX, BMG Labtech).
Percentage activation was calculated by normalising […] signals to plate LOW (DMSO vehicle) and HIGH (5 μM TEPP-46) controls. EC50 and Emax values were determined from 4-parameter logistic fits of compound concentration-response curves.

[3] = recombinant human PKM2 activation, 4-parameter logistic fit
[4] = activation of recombinant human PKLR, 4-parameter logistic fit
[5] = percentage activation normalised to DMSO vehicle (LOW) and 5 μM TEPP-46 (HIGH)
[6] = percentage activation normalised to DMSO vehicle (LOW) and 5 μM TEPP-46 (HIGH) controls
[7] = data from repeat experiments (*)
[8] = line of the repeat experiment (EC50 marked *)

T2 sequence (P30613 whole entry): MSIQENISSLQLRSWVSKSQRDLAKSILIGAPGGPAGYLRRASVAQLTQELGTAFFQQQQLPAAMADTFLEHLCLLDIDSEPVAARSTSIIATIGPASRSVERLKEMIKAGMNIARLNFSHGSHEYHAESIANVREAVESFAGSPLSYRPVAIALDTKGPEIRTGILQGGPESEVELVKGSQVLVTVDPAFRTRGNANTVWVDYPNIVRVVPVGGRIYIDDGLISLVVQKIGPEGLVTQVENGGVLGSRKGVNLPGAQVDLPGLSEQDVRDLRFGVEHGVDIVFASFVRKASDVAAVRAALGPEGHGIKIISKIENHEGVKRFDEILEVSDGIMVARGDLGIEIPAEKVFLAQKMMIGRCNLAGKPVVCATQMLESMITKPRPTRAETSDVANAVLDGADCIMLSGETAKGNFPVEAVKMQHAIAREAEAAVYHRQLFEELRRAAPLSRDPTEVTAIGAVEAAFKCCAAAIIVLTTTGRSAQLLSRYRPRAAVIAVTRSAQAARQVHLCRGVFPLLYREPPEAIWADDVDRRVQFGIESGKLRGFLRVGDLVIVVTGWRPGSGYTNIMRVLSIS
T1 sequence (P14618 2-531 limits assumed): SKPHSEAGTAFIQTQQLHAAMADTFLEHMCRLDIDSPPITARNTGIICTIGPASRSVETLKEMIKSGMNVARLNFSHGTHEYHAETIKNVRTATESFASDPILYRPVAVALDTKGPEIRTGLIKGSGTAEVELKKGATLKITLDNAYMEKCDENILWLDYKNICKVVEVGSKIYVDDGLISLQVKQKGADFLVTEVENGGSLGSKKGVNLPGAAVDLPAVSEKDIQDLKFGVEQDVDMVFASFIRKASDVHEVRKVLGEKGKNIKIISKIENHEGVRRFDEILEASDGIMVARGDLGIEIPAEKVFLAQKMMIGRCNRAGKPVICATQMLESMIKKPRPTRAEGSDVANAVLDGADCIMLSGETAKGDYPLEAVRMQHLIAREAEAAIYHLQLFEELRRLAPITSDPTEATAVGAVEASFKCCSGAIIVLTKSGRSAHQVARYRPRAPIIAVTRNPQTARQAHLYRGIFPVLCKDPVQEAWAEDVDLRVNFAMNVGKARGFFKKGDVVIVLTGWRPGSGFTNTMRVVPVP

| Structure (SMILES) | EC50 [1, 3] [nM] | EC50 [2, 4] [nM] | Emax [1, 5] [%] | Emax [2, 6] [%] | EC50 [1, 7] [nM] | Emax [1, 8] [%] | EC50 ([2]; * data from repeat experiments) [nM] | Emax ([2]; line of the repeat experiments (EC50 marked *)) [%] | hPKM2 Emax [1, 5] [%] |
| --- | --- | --- | --- | --- | --- | --- | --- | --- | --- |
| O=c1c2ccc(S(=O)(=O)c3cnn(CCO)c3)cc2cnn1Cc1ccc2c(n1)CCO2 [Example 309] | 50.4 | 6.58 | – | – | – | – | – | – | – |
| COc1ccc(S(=O)(=O)c2ccc3c(=O)n(Cc4ccn(C5CC5)n4)ncc3c2)cn1 [Example 205, 2-((1-cyclopropyl-1H-pyrazol-3-yl)methyl)-6-((6-methoxypyridin-3-yl)sulfonyl)phthalazin-1(2H)-one] | 59.2 | 8 | 120 | 115 | – | – | – | – | – |
| Cc1cc(F)c(Cn2ncc3cc(S(=O)(=O)c4cn[nH]c4)ccc3c2=O)nc1C [Example 321] | 73.4 | 6.57 | 100 | 134 | – | – | – | – | – |
| O=c1c2ccc(S(=O)(=O)c3cnn(C4CC4)c3)cc2cnn1Cc1cccnc1O [Example 193, 6-(1-cyclopropyl-1H-pyrazol-4-ylsulfonyl)-2-((2-hydroxypyridin-3-yl)methyl)phthalazin-1(2H)-one] | 161 | 86.3 | 84.9 | 111 | – | – | – | – | – |
| Cc1cccc(Cn2ncc3cc(S(=O)(=O)c4cnn(C5COC5)c4)ccc3c2=O)n1 [Example 270, 2-((6-methylpyridin-2-yl)methyl)-6-((1-(oxetan-3-yl)-1H-pyrazol-4-yl)sulfonyl)phthalazin-1(2H)-one] | 138 | 108 | 103 | 136 | – | – | – | – | – |
| O=c1c2ccc(S(=O)(=O)c3cnn(C4CC4)c3)cc2cnn1Cc1cc[nH]n1 [Example 228, 2-((1H-pyrazol-3-yl)methyl)-6-((1-cyclopropyl-1H-pyrazol-4-yl)sulfonyl)phthalazin-1(2H)-one] | 40.4 | 21.2 | 116 | 119 | 41.5 | 112 | – | – | – |
| Cn1ccc(Cn2ncc3cc(S(=O)(=O)c4cnn(C5CC5)c4)ccc3c2=O)n1 [Example 194, 6-(1-cyclopropyl-1H-pyrazol-4-ylsulfonyl)-2-((1-methyl-1H-pyrazol-3-yl)methyl)phthalazin-1(2H)-one] | 77.4 | 106 | 113 | 112 | – | – | – | – | – |
| Cn1ccc(Cn2ncc3cc(S(=O)(=O)c4ccccc4)c(NCCO)cc3c2=O)n1 [Example 244, 7-((2-hydroxyethyl)amino)-2-((1-methyl-1H-pyrazol-3-yl)methyl)-6-(phenylsulfonyl)phthalazin-1(2H)-one] | 206 | 27.4 | 105 | 123 | – | – | – | – | – |
| O=c1c2ccc(S(=O)(=O)c3cn[nH]c3)cc2cnn1Cc1ccc2c(n1)CCO2 [Example 253, 6-(1H-pyrazol-4-ylsulfonyl)-2-((2,3-dihydrofuro[3,2-b]pyridin-5-yl)methyl)phthalazin-1(2H)-one] | 20.1 | 5.59 | 104 | 107 | 21.6 | 105 | 4.32 | 118 | – |
| Cc1cccc(Cn2ncc3cc(S(=O)(=O)c4cn[nH]c4)ccc3c2=O)n1 [Example 238, 6-((1H-pyrazol-4-yl)sulfonyl)-2-((6-methylpyridin-2-yl)methyl)phthalazin-1(2H)-one] | 125 | 14.4 | 108 | 127 | – | – | – | – | – |
| O=c1c2ccc(S(=O)(=O)c3ccccc3)cc2cnn1Cc1n[nH]cc1F [Example 110, 2-((4-fluoro-1H-pyrazol-3-yl)methyl)-6-(phenylsulfonyl)phthalazin-1(2H)-one] | 68.6 | 29.6 | 119 | 118 | – | – | – | – | – |
| Cn1cc(S(=O)(=O)c2ccc3c(=O)n(Cc4cccc(C5CC5)n4)ncc3c2)cn1 [Example 275, 2-((6-cyclopropylpyridin-2-yl)methyl)-6-((1-methyl-1H-pyrazol-4-yl)sulfonyl)phthalazin-1(2H)-one] | 50.5 | 19.5 | 95.9 | 120 | – | – | – | – | – |
| C[C@H]1Cc2cc(S(=O)(=O)c3ccc4c(=O)n(Cc5ccn(C)n5)ncc4c3)ccc2O1 [Example 219, (S)-2-((1-methyl-1H-pyrazol-3-yl)methyl)-6-((2-methyl-2,3-dihydrobenzofuran-5-yl)sulfonyl)phthalazin-1(2H)-one] | 44.2 | 10.2 | 106 | 124 | – | – | – | – | – |
| Cc1cccc(Cn2ncc3cc(S(=O)(=O)c4cc[nH]n4)ccc3c2=O)n1 [Example 239, 6-((1H-pyrazol-3-yl)sulfonyl)-2-((6-methylpyridin-2-yl)methyl)phthalazin-1(2H)-one] | 109 | 24.8 | 106 | 135 | – | – | – | – | – |
| O=c1c2ccc(S(=O)(=O)c3cn[nH]c3)cc2cnn1Cc1cc2n(n1)CCO2 [Example 323] | 50.5 | 6.44 | – | – | – | – | – | – | – |
| Cn1cc(S(=O)(=O)c2ccc3c(=O)n(Cc4cc[nH]n4)ncc3c2)cn1 [Example 240, 2-((1H-pyrazol-3-yl)methyl)-6-((1-methyl-1H-pyrazol-4-yl)sulfonyl)phthalazin-1(2H)-one] | 159 | 30.3 | 107 | 125 | – | – | – | – | – |
| O=c1c2ccc(S(=O)(=O)c3ccc4c(c3)CCO4)cc2cnn1Cc1cc[nH]n1 [Example 203, 2-((1H-pyrazol-3-yl)methyl)-6-((2,3-dihydrobenzofuran-5-yl)sulfonyl)phthalazin-1(2H)-one] | 35.3 | 2.4 | 114 | 123 | – | – | – | – | – |
| COc1ccc([S@](=N)(=O)c2ccc3c(=O)n(Cc4ccc(OC)nc4)ncc3c2)cc1 (single isomer, unassigned) [Example 192] | 106 | 241 | – | 129 | – | – | – | – | 59.1 |
| COc1ccc(Cn2ncc3cc([S@@](=N)(=O)c4ccc5c(c4)CCO5)ccc3c2=O)cn1 (single isomer, unassigned) [Example 128] | 34.5 | 7.2 | 80.8 | 132 | – | – | – | – | – |
| O=c1c2ccc(S(=O)(=O)c3cc4c(cn3)OCC4)cc2cnn1Cc1cc[nH]n1 [Example 258, 2-((1H-pyrazol-3-yl)methyl)-6-((2,3-dihydrofuro[2,3-c]pyridin-5-yl)sulfonyl)phthalazin-1(2H)-one] | 88.8 | 15.3 | 108 | 142 | – | – | – | – | – |
| O=c1c2ccc(S(=O)(=O)c3ccc4c(c3)NCCO4)cc2cnn1Cc1cc[nH]n1 [Example 221, 2-((1H-pyrazol-3-yl)methyl)-6-((3,4-dihydro-2H-benzo[b][1,4]oxazin-6-yl)sulfonyl)phthalazin-1(2H)-one] | 42.8 | 3.4 | 105 | 134 | – | – | – | – | – |
| CC(O)c1nc(S(=O)(=O)c2ccc3c(=O)n(Cc4ccc5c(n4)CCO5)ncc3c2)cs1 (centres unmarked) [Example 327] | 36.9 | 3.71 | 10 | 124 | – | – | – | – | – |
| O=c1c2ccc(S(=O)(=O)c3cnn(C4CC4)c3)cc2cnn1Cc1ccn(C2CC2)n1 [Example 196, 2-((1-cyclopropyl-1H-pyrazol-3-yl)methyl)-6-((1-cyclopropyl-1H-pyrazol-4-yl)sulfonyl)phthalazin-1(2H)-one] | 47.6 | 17 | 98.9 | 120 | – | – | – | – | – |
| COc1ccc(S(=O)(=O)c2ccc3c(=O)n(Cc4cccn(CCO)c4=O)ncc3c2)cc1 [Example 5, 2-((1-(2-hydroxyethyl)-2-oxo-1,2-dihydropyridin-3-yl)methyl)-6-(4-methoxyphenylsulfonyl)phthalazin-1(2H)-one] | 60.7 | 19.3 | 102 | 111 | – | – | – | – | – |
| Cc1cccc(Cn2ncc3cc(S(=O)(=O)c4csc([C@H](C)O)n4)ccc3c2=O)n1 (single isomer, unassigned) [Example 297] | 103 | – | 94.7 | – | – | – | – | – | – |
| NC(=O)c1cccc(Cn2ncc3cc(S(=O)(=O)c4ccccc4)ccc3c2=O)c1 [Example 84, 3-((1-oxo-6-(phenylsulfonyl)phthalazin-2(1H)-yl)methyl)benzamide] | 115 | – | 93.1 | – | – | – | – | – | – |
| CC(c1cccnc1)n1ncc2cc(S(=O)(=O)c3ccccc3)ccc2c1=O (centres unmarked) [Example 69, 6-(phenylsulfonyl)-2-(1-(pyridin-3-yl)ethyl)phthalazin-1(2H)-one] | 1170 | – | 75.5 | – | – | – | – | – | – |
